According to patent US20210251208A1, “COMPOSITION AND METHOD FOR ATTRACTING BED BUGS” (NATTARO LABS AB, priority 2016, published 2021):
Several values for one entry are separate records, joined by “and”; a condition that tells them apart may be missing. Equal entries are not always repeated. Entries after “also recorded” stand apart in the source; their conditions may differ.

How the values were obtained:
bed bugs [1] = experiment: Arena test of baits (52 cm arena, ten bed bugs, 30 minutes); format: in vivo; conditions: baits formulated using 3 wt % methylcellulose
Procedure: In these tests bed bugs were placed in an arena and allowed to freely move around while the movement patterns were recorded, including in particular the time that bed bugs spent in proximity to each of the three different stations, each station comprising a bait (test compound) or control.
The arena comprised a round (52 cm diameter) white painted metal tray with a 3.8 cm high rim. Evenly spaced half way between centrum and periphery three holes (3.4 cm diam) were bored. To prevent bed bug escape the rim was painted with Insect-a-Slip (#2871C Fluon, BioQuip Products, Inc. 2321 E, Chadwick St., Rancho Dominguez, Calif. 90220) resulting in a non-porous slippery, surface at the rim of the tray.
Three plastic containers (34 mm diam×7 cm high), each with a net covered hole (18 mm diam) at the bottom to allow airflow, were attached below the holes at the underside of the arena using clay dough. At the start of an experiment the compounds/baits and controls were placed one in each container below the arena. […]
Bed bugs, ten at a time, were introduced in separate vials into the middle of the arena and simultaneously video recording was started. […] At the end of the 30 minutes experimental period, the number of bed bugs in each container, and beneath or at the rim of the convex glass sheet above each container was scored. […] The final position was not recorded during early experiments. […]

bed bugs [2] = experiment: Arena test of individual compounds vs. blend (40 cm arena, synergy); format: in vivo; conditions: individual compound 100 mg/l in gelatine, five females and five males, N = 10
Procedure: The following six tests were carried out: arena test of each of the five compounds a, b, e, f, and g individually and a test of the whole blend abefg. The procedure was the following.
Gelatine solutions (lures) each containing a total of 100 mg/l of either (a) E-2-hexenal, (b) E-2-octenal, (e) E-2-hexenoic acid, (f) 2-octenoic acid and (g) 2-hexanone or the combination of the five compounds abefg were prepared.
Five female and five male bedbugs were released into the centre of the arena in a dark room. The arena was lit with infrared light and after an initial 5 min acclimatization bed bugs were released in the middle of the arena and left for 30 minutes during which time their activity was video-recorded using an Infrared light camera coupled to Noldus Ethovision 15 program. At the end of the 30 minutes period, the bed bugs were manually collected and their positions recorded.
After each replicate, the arena was cleaned with 70% ethanol and the position of the compound and controls were shifted. Ten replicates were made with each of the individual compound lures and the whole blend totalling 60 tests comprising 600 bed bugs, 300 females and 300 males. […] This value was subtracted from the number of bed bugs attracted to each lure correcting for the random part in the attraction in each replicate. The corrected values were used to calculate the average number of bed bugs attracted to each individual lure chemical and to the lure blend.

[3] = Dynamic headspace collection of volatiles from bait, GC-MS; format: physicochemical; conditions: abefg 1:1:1:1:1 in gelatine 100 mg/l of each compound
Procedure: After collection of the enfleurage samples head-space collections were made from each container using a special lid into which an adsorbent plug was inserted. The head-space of all containers in a replicate was collected simultaneously under dark conditions (except the first samples of replicate one) using battery operated membrane pumps. The air-flow through each container was adjusted to 35-40 ml/min. The head-space samples were collected for 2 hours for replicate one to three after the first week, but was extended to 4-6 hours for replicate 4 & 5 and for all replicates and collections after the second week. This was done to secure more material as the first samples were very weak.
The samples were analyzed on a gas chromatograph (GC, Hewlett-Packard 6890 Series) equipped with a polar capillary column (Innowax; 30 m long, 0.25 mm i.d. and film thickness 0.25 μm Agilent Technologies USA) coupled to a mass spectrometer (Hewlett-Packard 5973 Mass Selective Detector). The injector temperature was 225° C. and the injection splitless. The GC temperature was programmed for 2 min at 40° C. followed by a gradual increase of 8°/min to 225° C., where the temperature was held steady for five min. Compounds were identified against the spectra and retention times of authentic reference compounds or in a few cases against the spectral libraries of ADAM and NIST2011.
One of the baits used in the Arena test was placed in a container and the dynamic headspace was collected as described in example 1 and analysed using Gas chromatography-Mass spectroscopy (GC-MS).

[4] = Stability / shelf-life of baits; format: physicochemical; conditions: ascorbic acid included in gelatine baits
Excerpt: The inclusion of ascorbic acid was thus subsequently discontinued.

Molecule	attractive effect in (initial) Arena tests (bed bugs [1])	No. of bed bugs at test compound position at end of experiment (average, corrected for random attraction to controls) (bed bugs [2])	AMOUNT in headspace of bait ([3]; Sample no. 15:209-213)	AMOUNT in headspace of bait ([3]; Sample no. 15:215-219)	AMOUNT in headspace of bait ([3]; Sample no. 15:245.1-5)	AMOUNT in headspace of bait ([3]; Sample no. 16:02.1-5)	AMOUNT in headspace of bait ([3]; Sample no. 16.37-40)	effect of anti-oxidant on baits / shelf-life of the composition [4]
CCC(=O)/C=C/C=O [4-Oxo-(E)-2-hexenal]	no attractive effect, rather as having a repulsive effect							
CCCCC(=O)/C=C/C=O [4-oxo-(E)-2-octenal, 4-Oxo-(E)-2-octenal]	no attractive effect, rather as having a repulsive effect							
CCC/C=C/C=O [(a) E-2-hexenal, (E)-2-hexenal]		slightly deterrent effect and −0.50						
CCCCC/C=C/C=O [(b) E-2-octenal, (E)-2-octenal]		1.35						
CCC/C=C/C(=O)O [(e) E-2-hexenoic acid, (E)-2-hexenoic acid]		0.55	0.2 nano gram/hour	3.1 nano gram/hour	0 nano gram/hour	1.4 nano gram/hour	0.08 nano gram/hour	
CCCCCC=CC(=O)O [(f) E-2-octenic acid, 2-Octenoic acid]		0.35						
CCCCC(C)=O [(g) 2-hexanone, 2-Hexanone]		1.35	429.1 nano gram/hour	310.3 nano gram/hour	168.2 nano gram/hour	76.1 nano gram/hour	402.0 nano gram/hour	
O=C1O[C@H]([C@@H](O)CO)C(O)=C1O [ascorbic acid]								degraded the baits and resulted in lower efficiency of the baits; also recorded: decreased the shelf-life of the composition
(E)-octenoic acid			0 nano gram/hour	0.8 nano gram/hour	0 nano gram/hour	0 nano gram/hour	0.01 nano gram/hour	
(Z)- & (E)-2-Hexenal			565.6 nano gram/hour	234.6 nano gram/hour	136.3 nano gram/hour	102.2 nano gram/hour	258.3 nano gram/hour	
(Z)- & (E)-2-octenal			914.5 nano gram/hour	477.6 nano gram/hour	438.5 nano gram/hour	405.2 nano gram/hour	349.9 nano gram/hour	
